# Measurements as given in paper PMC8704606, “The Artemiside-Artemisox-Artemisone-M1 Tetrad: Efficacies against Blood Stage P. falciparum Parasites, DMPK Properties, and the Case for Artemiside” (Pharmaceutics, 2021).
# Like-named read-outs stand apart in the source and are kept apart here.
# Legend:
# [1] = test system: asexual blood stages of Pf NF54 (drug sensitive); parameters: method as in PMID 29866868, PMID 31998692; details: asexual blood stage Pf NF54, CQ sensitive; SYBR Green I; ± SEM; cited from earlier work
# [2] = Pharmacokinetics and metabolism after iv and po administration; assay type: in vivo; details: for half-life: mean ± SD, read-out: t½ (converted); for MRT last: read-out: MRT0-last; for AUC(0-t): up to 7 h
# Method: The plasma concentration-time profiles of the parent compounds and metabolites after administration iv and po to male C57/BL6 mice are presented in Figure 2, Figure 3 and Figure 4. Artemiside was quantifiable up to 24 h in all mice dosed iv and up to 7 h po (lower limit of quantitation LLOQ = 1.6 ng/mL or 0.004 μM) (Figure 2). […] For both artemiside and artemisox, the metabolite artemisone was quantifiable up to 3 h in both the po and iv groups (Figure 2 and Figure 3). Thereby it is confirmed that artemiside is rapidly converted via artemisox into artemisone. Artemisone itself was quantifiable up to three hours post dose (Figure 4). The mean circulating concentrations for the compounds and their metabolites are presented in Table S3a–f in the Supplementary Material 1. The metabolite M1 was also detected upon administration of artemiside, artemisox, and artemisone, but it was not quantified here; chromatograms indicating the presence of M1 are illustrated in Figure S3a–c in the Supplementary Material 1. In addition, the plasma concentration-time curves for artemiside and its metabolites artemisone and M1 following iv and po dosing in the same murine model are presented and discussed in detail elsewhere (cf. Figure 4 in reference).
# All work was conducted with prior approval of the animal ethics committee of the University of Cape Town in accordance with the South African National Standards for the Care and Use of Animals for Scientific Purposes and guidelines from the South African Department of Health. The requirements and methods for the pharmacokinetics in vivo involving po and iv drug administration, sample extraction, analyses of samples by LC-MS/MS, and data analyses are described elsewhere. For the animal experiments and formulations, the compounds were dissolved in a 10:60:30 mixture of N,N-dimethylacetamide-polypropylene glycol-polyethylene glycol for intravenous dosing (iv) at 5 mg/kg. For the oral dose (po), compounds were individually dosed as a suspension in 0.5% (w/v) hydroxypropylmethylcellulose in water with 0.2% Tween80 at 50 mg/kg to male C57/BL6 mice (n = 3 for each group). For PK sampling, blood samples were collected at predetermined times (0.08, 0.25, 0.5, 1, 3, 5, 7, and 24 h) for both po and iv dosing via tail bleeding into heparinized tubes, centrifuged, and the plasma samples were stored at −80 °C until extraction. For preparation of samples, the frozen plasma samples were thawed and 15 μL was extracted by liquid–liquid extraction using a universal buffer (pH8) containing 10 ng/mL of the internal standard and ethyl acetate, and the extract was vortexed and centrifuged. Calibration standards and quality controls were extracted following the same procedure. Supernatants were dried down, reconstituted, and injected onto the column for LC-MS/MS analysis using an AB SCIEX 5500 QTRAP instrument coupled to an Agilent 1260 HPLC detection system as previously described.
# [3] = Cytotoxicity (LDH assay) against HepG2 cells; assay type: cell-based; details: human, HepG2 cells (hepatocellular carcinoma)
# Method: Cytotoxicity against mammalian hepatocellular carcinoma cells (HepG2 cells) was determined using the lactate dehydrogenase assay (LDH, Biovision Inc., Milpitas, CA, USA). […] Compound working solutions were prepared from 10 mM stock solutions (100% DMSO) in complete DMEM to a final DMSO (Sigma-Aldrich) conc. of <0.1% (vol/vol). […] Data analysis was performed using GraphPad Prism (version 6) software.
# [4] = test system: late-stage (LG) Pf NF54 gametocytes; parameters: method as in PMID 29866868; details: late-stage gametocytes >90% stages IV-V; dose responses obtained at 72 h; ± SEM; cited from earlier work
# [5] = male, C57/BL6, mouse, plasma, iv 5 mg/kg, parent drug
# [6] = male, C57/BL6, mouse, plasma, po 50 mg/kg, parent drug
structure (smiles),measurement,setting,value
"C[C@H]1[C@H](N2CCSCC2)O[C@@H]2O[C@@]3(C)CC[C@H]4[C@H](C)CC[C@@H]1[C@@]24OO3 [Artemiside 5, Artemiside]",IC50,[1],1.11 ± 0.17 nM
same,Mean po circulating concentration,[2]; 24 h after po 50 mg/kg artemiside 5,blq
same,quantifiable/detectable in plasma up to,"[2]; iv group, parent drug, LLOQ 1.6 ng/mL or 0.004 μM for artemiside",up to 24 h
same,concentration at 0.08 h,"[2]; male, C57/BL6, mouse, plasma, iv, 5 mg/kg, 0.08 h after iv 5 mg/kg artemiside 5, read-out: Mean iv circulating concentration",6.24 µM
same,concentration at 0.25 h,"[2]; male, C57/BL6, mouse, plasma, iv, 5 mg/kg, 0.25 h after iv 5 mg/kg artemiside 5, read-out: Mean iv circulating concentration",3560 nM
same,concentration at 0.5 h,"[2]; male, C57/BL6, mouse, plasma, iv, 5 mg/kg, 0.5 h after iv 5 mg/kg artemiside 5, read-out: Mean iv circulating concentration",1710 nM
same,concentration at 1 h,"[2]; male, C57/BL6, mouse, plasma, iv, 5 mg/kg, 1 h after iv 5 mg/kg artemiside 5, read-out: Mean iv circulating concentration",930 nM
same,concentration at 3 h,"[2]; male, C57/BL6, mouse, plasma, iv, 5 mg/kg, 3 h after iv 5 mg/kg artemiside 5, read-out: Mean iv circulating concentration",180 nM
same,concentration at 5 h,"[2]; male, C57/BL6, mouse, plasma, iv, 5 mg/kg, 5 h after iv 5 mg/kg artemiside 5, read-out: Mean iv circulating concentration",86 nM
same,concentration at 7 h,"[2]; male, C57/BL6, mouse, plasma, iv, 5 mg/kg, 7 h after iv 5 mg/kg artemiside 5, read-out: Mean iv circulating concentration",37 nM
same,concentration at 24 h,"[2]; male, C57/BL6, mouse, plasma, iv, 5 mg/kg, 24 h after iv 5 mg/kg artemiside 5, read-out: Mean iv circulating concentration",8 nM
same,half-life,"[2]; male, C57/BL6, mouse, plasma, iv, 5 mg/kg, iv 5 mg/kg, parent drug",72 ± 6 min
same,concentration at 0.08 h,"[2]; male, C57/BL6, mouse, plasma, po, 50 mg/kg, 0.08 h after po 50 mg/kg artemiside 5, read-out: Mean po circulating concentration",0.085 µM
same,concentration at 0.25 h,"[2]; male, C57/BL6, mouse, plasma, po, 50 mg/kg, 0.25 h after po 50 mg/kg artemiside 5, read-out: Mean po circulating concentration",109 nM
same,concentration at 0.5 h,"[2]; male, C57/BL6, mouse, plasma, po, 50 mg/kg, 0.5 h after po 50 mg/kg artemiside 5, read-out: Mean po circulating concentration",135 nM
same,concentration at 1 h,"[2]; male, C57/BL6, mouse, plasma, po, 50 mg/kg, 1 h after po 50 mg/kg artemiside 5, read-out: Mean po circulating concentration",119 nM
same,concentration at 3 h,"[2]; male, C57/BL6, mouse, plasma, po, 50 mg/kg, 3 h after po 50 mg/kg artemiside 5, read-out: Mean po circulating concentration",58 nM
same,concentration at 5 h,"[2]; male, C57/BL6, mouse, plasma, po, 50 mg/kg, 5 h after po 50 mg/kg artemiside 5, read-out: Mean po circulating concentration",12 nM
same,concentration at 7 h,"[2]; male, C57/BL6, mouse, plasma, po, 50 mg/kg, 7 h after po 50 mg/kg artemiside 5, read-out: Mean po circulating concentration",6 nM
same,half-life,"[2]; male, C57/BL6, mouse, plasma, po, 50 mg/kg, po 50 mg/kg, parent drug",84 ± 2.4 min
same,clearance,"[2]; male, C57/BL6, mouse, plasma, iv 5 mg/kg",58.3 mL/min/kg
same,AUC(0-inf),[2]; [5],3.9 ± 0.4 µM·h
same,MRT last,"[2]; male, C57/BL6, mouse, plasma, iv 5 mg/kg, parent drug, 0-last up to 7 h",1 ± 0.1 h
same,AUC(0-t),[2]; [5],3.8 ± 0.5 µM·h
same,Vd,"[2]; male, C57/BL6, mouse, plasma, iv 5 mg/kg, read-out: Vss",4.1 ± 0.5 L/kg
same,Cmax,[2]; [6],130 ± 10 nM
same,MRT last,[2]; [6],1.9 ± 0.1 h
same,AUC(0-t),[2]; [6],0.36 ± 0.06 µM·h
same,MAT (mean absorption time = MRTpo–MRTiv),[2]; po 50 mg/kg,55.2 ± 12 min
same,quantifiable/detectable in plasma up to,"[2]; po group, parent drug",up to 7 h
same,IC50 at 24 h,[3],> 50 µM
same,IC50,[4],1.5 ± 0.5 nM
